How the values were obtained:
[1] = tested on: wound gelatinolytic activity; assay: In situ gelatin zymography of wound tissue (Example 3); type: in vivo, mouse; details: day 13; 0.25 mg/wound; compared to vehicle
Description: On day 7, half of the mice (n=10) were sacrificed and the wounds of each animal excised. […] On the day of sacrifice, the wounds of each mouse were excised, and analyzed by histology, gelatin zymography and Western blot, and in situ gelatin zymography. Specifically, one wound from each sacrificed animal was analyzed by in situ gelatin zymography, and one wound from each sacrificed animal was analyzed by gelatin zymography, followed by Western blot.
FIG. 2(A) is a graph of the wound closure measurements, determined every day of the study as [(initial−final)/initial]×100. […] FIG. 2(C) is a photograph of a representative skin lesion of a mouse treated with saline on day 13. […] Wound gelatinolytic activity is visualized using fluorescein isothiocyanate (FITC)-labeled substrate (right images), and 4′,6-diamidino-2-phenylindole (DAPI)-labeled […] (left images). […] Thus, gelatinolytic activity was suppressed in the gelatinase inhibitor-treated group (FIG. 2 (D)).

[2] = tested on: skin punch biopsy lesions of female diabetic mice (db/db mice); assay: Chronic wound model, two 6-mm skin punch biopsy lesions, topical treatment; type: in vivo, mouse
Description: Female diabetic mice (db/db mice, 9-10 weeks old, Jackson Laboratory, Bar Harbour, Me.) (n=10 per group) were prepared for aseptic surgery by clipping the hair on the dorsal thorax and scrubbing the skin with betadine followed by alcohol. […] Each wound was covered with an occlusive dressing following biopsy. The mice recovered on a cage with clean bedding on a heating pad. Mice received buprenorphine subcutaneously (1.5-2.5 mg/kg) at the conclusion of surgery and again 3-5 hours later. Mice were administered 0.5 mL of warm sterile saline intraperitoneally at the conclusion of surgery. […] Wound closure was determined every day for each animal using the initial and final wound diameters, with the percentage wound closure calculated as [(initial−final)/initial]×100.
On day 12, half of the mice (n=10) were sacrificed and the wounds of each animal excised. The remaining mice continued treatment at the dosages provided above once a day until day 23, when they were sacrificed On the day of sacrifice, the wounds of each mouse were excised, and analyzed by histology, gelatin zymography and Western blot, and in situ gelatin zymography.
Female diabetic mice (db/db mice; 9-10 weeks old, Jackson Laboratory, Bar Harbour, Me.) (n=10 per group) were prepared for aseptic surgery by clipping the hair on the dorsal thorax and scrubbing the skin with betadine followed by alcohol. […] Each wound was covered with an occlusive dressing following biopsy. The mice recovered on a cage with clean bedding on a heating pad. Mice received buprenorphine subcutaneously (1.5-2.5 mg/kg) at the conclusion of surgery and again 3-5 hours later. Mice were administered 0.5 mL of warm sterile saline intraperitoneally at the conclusion of surgery. […] Wound closure was determined every day for each animal using the initial and final wound diameters, with the percentage wound closure calculated as [(initial−final)/initial]×100.
Female diabetic mice (db/db mice) (n=10 mice per group, n=2 wounds per mouse, 9-10 weeks old, Jackson Laboratory, Bar Harbour, Me.) were prepared for aseptic surgery by clipping the hair on the dorsal thorax and scrubbing the skin with betadine followed by alcohol. […] Each wound was covered with an occlusive dressing following biopsy. The mice recovered on a cage with clean bedding on a heating pad. Mice received buprenorphine subcutaneously (1.5-2.5 mg/kg) at the conclusion of surgery and again 3-5 hours later. Mice were administered 0.5 mL of warm sterile saline intraperitoneally at the conclusion of surgery. […] Wound closure was determined every day for each animal using the initial and final wound diameters, with the percentage wound closure calculated as [(initial−final)/initial]×100.

[3] = tested on: animal models of cancer metastasis, stroke, hemorrhage, spinal cord and brain injury; details: prostate, breast cancer and T-cell lymphoma metastasis, ischemic stroke, subarachnoid hemorrhage, traumatic brain injury, testosterone-induced neurogenesis; cited from earlier work
[4] = tested on: wounds of female wild-type mice; assay: Excisional wound model, single 8-mm wound, topical treatment, wild-type mice; type: in vivo, mouse
Text: (§1) Single excisional wounds 8-mm in diameter were made with a biopsy punch (Miltex, York, Pa., USA) using aseptic technique in the shaved dorsal regions of female diabetic db/db mice and female wild-type mice under isoflurane anesthesia. […] Wounds were photographed and immediately covered with a sterile dressing (3M Tegaderm™ Transparent Dressing, Butler Schein Animal Health, Inc., Dublin, Ohio). Cellulose acetate collars were made in-house from expired films and mounted on the wild-type mice to prevent them from disturbing the wounds on their back. […] On days 1, 3, 7, 10, and 14, digital photographs of wounds were taken while animals were under isoflurane anesthesia. […] The wounds with minimal surrounding healthy tissue were excised and either flash-frozen in liquid nitrogen for protein expression profiling or embedded in optimal cutting temperature (OCT) compound (Tissue-Tek, Torrance, Calif., USA) followed by cryosectioning for histological assessment.
(§2) Digital images were analyzed for wound areas using the NIH ImageJ version 1.45 software. Photographs of each wound were taken using a digital camera (Olympus SP-800UZ, Center Valley, Pa., USA), which was statically mounted on a tripod at a fixed distance above the mouse wound. A ruler was included in the photographic frame to allow ImageJ calibration. The wound outline was defined from the photographic image and the ImageJ software calculated the wound area. Wound closure was expressed as the change in wound area relative to that from day 0.
(§3) Wound closures are expressed as mean±SD (n=35 on day 1; n=28 on day 3; n=21 on day 7; n=14 on day 10; n=7 on day 14). Wound closures and levels of MMP-8 and MMP-9 were analyzed using a paired Student t-test; p<0.05 was considered statistically significant.
(§4) Fresh wound tissue was cut, embedded in OCT compound, and cryosectioned at a thickness of 12-μm in preparation for hematoxylin-eosin (H&E) staining. Morphological assessment of re-epithelialization was performed on a Nikon Eclipse 90i Fluorescent Microscope (Nikon Instruments Inc., Melville, N.Y., USA) (Tkalcevic et al., Toxicol. Pathol. 37 (2), 183-192 (2009)). In situ gelatin zymography was performed as described (Oh et al., J. Neurosci. 19 (19), 8464-8475 (1999)). Briefly, unfixed cryostat sections (12-μm-thick) of wound tissues were incubated in a reaction buffer (50 mM TBS pH 7.6) containing DQ-gelatin conjugate (Molecular Probes, Eugene, Oreg., USA) at 37° C. for 6 h. After fixation in 4% paraformaldehyde in PBS, cells were counterstained with DAPI (Molecular Probes, Eugene, Oreg., USA) and the images were visualized by fluorescence microscopy.

[5] = tested on: wounds of female diabetic db/db mice; assay: Excisional diabetic wound model, single 8-mm wound, topical treatment; type: in vivo, mouse
Text: as §1, §2, §3, §4

[6] = tested on: gelatinase activity in wound tissues of diabetic mice; assay: In-situ gelatin zymography with DQ-gelatin (Example 5); type: in vivo, mouse; details: db/db mice; compared to vehicle
Description: as §4

Nc1ccc(Oc2ccc(S(=O)(=O)CC3CS3)cc2)cc1 (stereo not shown) [p-amino SB-3CT]
wound gelatinolytic activity (in situ gelatin zymography) [1]: suppression of gelatinolytic activity | difference in wound healing between treated and vehicle groups ([2]; Example 3, 0.25 mg/wound once per day, 13 days, vehicle saline): Significant differences in wound healing | wound closure ([2]; day 6, 0.25 mg/wound topical once per day, vehicle saline, db/db mice): 37.0±9.5%

O=S(=O)(CC1CS1)c1ccc(Oc2ccccc2)cc1 (stereo not shown) [SB-3CT, 2-(((4-phenoxyphenyl)sulfonyl)methyl)thiirane]
efficacy in animal models [3]: effective | wound closure ([2]; at 13-14 days, SB-3CT-treated db/db mice (0.25 or 1.25 mg/wound per day)): > 90% | wound closure ([2]; day 6, 0.25 mg/wound per day topical, vehicle DMSO, db/db mice): 49.6±14.0% | wound closure ([2]; day 6, 1.25 mg/wound per day topical, vehicle DMSO, db/db mice): 50.0±7.4% | difference in wound closure between vehicle and treated mice ([2]; starting on day 2, db/db mice, Example 1): Significant differences (p<0.05)

Nc1ccc(Oc2ccc(S(=O)(=O)CC3CS3)cc2)cc1 (stereo not shown) [ND-322]
effect on wound healing compared to vehicle ([4]; 0.25 mg/wound/day topical, p>0.25): did not accelerate healing | wound closure ([4]; day 7, 0.25 mg/wound/day topical, n=21): 62±19% | wound closure ([4]; day 10, 0.25 mg/wound/day topical, n=14): 82±11% | re-epithelialization (H&E staining) ([4]; day 14): completely re-epithelialized | wound closure ([4]; day 14, 0.25 mg/wound/day topical, n=7): 96±4% | effect on wound healing compared to vehicle ([5]; 0.25 mg/wound/day topical): accelerated wound healing | wound closure ([5]; day 10, 0.25 mg/wound/day topical, n=14, p<0.05 vs vehicle): 70±16% | re-epithelialization (H&E staining) ([5]; day 14): complete re-epithelialization | wound closure ([5]; day 14, 0.25 mg/wound/day topical, n=7, p<0.01 vs vehicle): 92±4% | difference in wound closure vs vehicle ([5]; days 1, 3, and 7, p>0.2): not statistically significant | gelatinase activity in wound tissues (in-situ zymography) [6]: significantly decreased

Source: US20130064878A1, “WOUND HEALING COMPOSITIONS AND METHODS” (UNIVERSITY OF NOTRE DAME DU LAC, priority 2011, published 2013)
